From US20150344426A1, “COMPOUNDS AND THERAPEUTIC USES THEREOF” (ALZHEIMER'S INSTITUTE OF AMERICA, INC., priority 2012, published 2015)

Legend:
[1] = Kinetic solubility (iSol Explorer method); format: physicochemical; settings: system solution buffer (pION), aqueous buffer, kinetic from dmso stock
Experimental: Kinetic solubility was determined using the iSol Explorer method (pION Inc.; Woburn, Mass.). Certain Example Compounds were dissolved in dimethylsulfoxide (DMSO; >99.9% ACS spectrophotometric grade; Sigma-Aldrich, St. Louis, Mo.) to a concentration of 100 mM. The DMSO stock was diluted 1:100 in system solution buffer (pION Inc. Wobum Mass.) that had been adjusted to the desired pH (5.0, 6.8, and 7.4) with either HCl or NaOH. The diluted samples in the desired buffer were incubated for 15 minutes at room temperature and filtered using 96-well plate with 0.25 mm glass fiber/1.2 μm polyethersulfone filter bottoms (Corning, Inc.; Corning, N.Y.). The filtrate is transferred to a second 96-well plate and read on a SpectraMAX 190 (Molecular Devices; Sunnyvale, Calif.) scanning from 190 to 498 nm. The data are analyzed with Sol Explorer Command version 2.2, (pION Inc. Woburn, Mass.) and the concentration reported in molarity and/or mass per volume.

[2] = Stability in mouse liver microsomal preparations; format: in vitro ADME; settings: liver microsomes, with and without 1 mM NADPH (not said which), read-out: Mouse Liver Microsomes t1/2
Experimental: (§1) Relative stability of Example Compound Nos. 1 through 60 in mouse plasma and mouse liver microsomal preparations.
(§2) Certain Example Compounds were each added to a final concentration of 1 μM to 1 mL of each of mouse plasma and mouse liver microsomal preparations (with and without 1 mM NADPH). Stability assays were run in duplicate and were sampled at 0, 5, 15, 30, 60 and 120 minutes as follows: one hundred microliter aliquots of samples were removed at the specified sampling times, and the reaction was quenched with 400 μL of acetonitrile.
(§3) Samples were analyzed by HPLC-ESI-MS/MS by measuring the peak area of both the starting Example Compound and parent compound (i.e., either Parent Compound A or Parent Compound B) that were created by removal of the Prodrug Moiety (as defined in Section 6 herein).

[3] = Stability assessment / semi-quantitative hygroscopicity in a relative humidity (RH) chamber; format: physicochemical; settings: solid in RH chamber; morphology and parent:prodrug composition
Experimental: “ND” in Table 2 refers to “No Data”. Purity was determined by HPLC. Melting point was determined by differential scanning calorimetry (“DSC”), and semi-quantitative hygroscopicity was determined in a relative humidity (“RH”) chamber.

[4] = Stability in mouse plasma; format: in vitro ADME; settings: read-out: Mouse Plasma t1/2
Experimental: as §1, §2, §3

[5] = test system: HT1080 human fibrosarcoma cancer cells; test: Anti-tumor activity in HT1080 human fibrosarcoma xenograft with twice daily dosing; format: in vivo; settings: for animals with no detectable tumors by the end of the study: cohort of ten
Experimental: One million HT1080 cells were implanted subcutaneously in the right flank of female nude mice (Crl:NU-Fox1^nu). When the median tumor volume (MTV) was approximately 209 mm^3, mice were randomized into four cohorts of ten animals. […] All cohorts were dosed twice daily for 7 days. The mice were observed daily for mortality and signs of toxicity. Tumor volumes and body weights were determined from Days 1 to 22. The results are depicted in FIG. 4.

[6] = pH 5.0, 15 minutes at room temperature
[7] = pH 6.8, 15 minutes at room temperature
[8] = pH 7.4, 15 minutes at room temperature
[9] = Example Compounds 44/45 study, 8 mg/kg twice daily for 7 days, Day 9
[10] = Example Compounds 44/45 study, 8 mg/kg twice daily for 7 days, end of the study, Day 22
[11] = Example Compounds 44/45 study, 12 mg/kg twice daily for 7 days, Day 9
[12] = Example Compounds 44/45 study, 12 mg/kg twice daily for 7 days, end of the study, Day 22

Row | Structure (SMILES) | solubility at 15 min [1, 6] [µM] | solubility at 15 min [1, 7] [µM] | solubility at 15 min [1, 8] [µM] | half-life at 1 µM [2] [min] | Stability at 60° C. and 75% RH [3] | Stability at 40° C. and 75% RH [3] | half-life at 1 µM [4] [min] | other results
1 | CC(=O)OC[n+]1cccc(CNC(=O)Nc2ccc(OCCc3ccccc3-c3ccccc3)cc2)c1 [Example 34, 1-[(Acetyloxy)methyl]-3-{[({4-[2-(biphenyl-2-yl)ethoxy]phenyl}carbamoyl)amino]methyl}pyridinium] | 397 | 393 | 399 | < 5 | – | – | – | –
2 | CC(C)(C)C(=O)OC[n+]1cccc(CNC(=O)Nc2ccc(OCCc3ccccc3-c3ccccc3)cc2)c1 [Example 36, 3-{[({4-[2-(Biphenyl-2-yl)ethoxy]phenyl}carbamoyl)amino]methyl}-1-{[(2,2-dimethylpropanoyl)oxy]methyl}pyridinium] | 601 | 547 | 524 | – | Oiled out at 1 hr No change in composition | – | – | –
3 | CCCC(=O)OC[n+]1cccc(CNC(=O)Nc2ccc(OCCc3ccccc3-c3ccccc3)cc2)c1 [Example 41, 3-{[({4-[2-(Biphenyl-2-yl)ethoxy]phenyl}carbamoyl)amino]methyl}-1-[(butanoyloxy)methyl]pyridinium] | – | – | – | < 5 | Deliquesced at 24 hr No change in composition | No change in morphology at 14 days, only prodrug observed | < 5 | –
4 | CC(C)C(OC(=O)c1ccccc1)[n+]1cccc(CNC(=O)Nc2ccc(OCCc3ccccc3-c3ccccc3)cc2)c1 (centres unmarked) [Example 43, 1-[1-(Benzoyloxy)-2-methylpropyl]-3-{[({4-[2-(biphenyl-2-yl)ethoxy]phenyl}carbamoyl)amino]methyl} pyridinium] | – | – | – | 59.1 | Approximately 5:95 parent to prodrug observed at 14 days | No change in morphology at 14 days, only prodrug observed | 29.8 | –
5 | CC(C)C(=O)OC[n+]1cccc(CNC(=O)Nc2ccc(OCCc3ccccc3-c3ccccc3)cc2)c1 [Example 44, 3-{[({4-[2-(Biphenyl-2-yl)ethoxy]phenyl}carbamoyl)amino]methyl}-1-{[(2-methylpropanoyl)oxy]methyl}pyridinium] | – | – | – | < 5 | Deliquesced at 5 days approximately 50:50 parent to prodrug | No change in morphology at 14 days, circa 7:93 parent to prodrug | < 5 | animals with no detectable tumors by the end of the study ([5]; Example Compounds 44/45 study, 8 mg/kg): One; animals with no detectable tumors by the end of the study ([5]; Example Compounds 44/45 study, 12 mg/kg): three; MTV decrease [5, 9]: 62%; tumor regression [5, 9]: 62%; MTV increase [5, 10]: 16%; tumor growth inhibition [5, 10]: 95%; MTV decrease [5, 11]: 67%; tumor regression [5, 11]: 67%; MTV decrease [5, 12]: 67%; tumor regression [5, 12]: 67%; anti-tumor activity in the HT1080 xenograft model (summary statement) ([5]; administered orally, twice daily, all doses tested): significant anti-tumor activity; Tolerability ([5]; xenograft mice, all doses tested, orally twice daily): well tolerated
